Reference: patent publication US12275731B2, “Azaindole inhibitors of wild-type and mutant forms of LRRK2” (DANA-FARBER CANCER INSTITUTE, INC., priority 2018, dated 2025)

Tests used:
Assay in all cases: KinomeScan profiling
Assay type in all cases: binding
[1] = target: FRK (Homo sapiens, UniProt P42685); settings: read-out: % control
Procedure: (§1) The kinase selectivity of inventive compounds 77, 96 and 101 was evaluated by KinomeScan®. KinomeScan® analysis was performed against a near comprehensive panel of 468 kinases. The control percentage (% control) for inventive compounds at 1 μM in DMSO was determined by Equation 1: % control=(inventive compound−positive control)/(negative control−positive control)×100%, Equation 1
(§2) wherein the positive control is a compound with a % control value of 0% relative light units (RLU), and the negative control (i.e., DMSO) has % control value of 100% RLU. The enzyme selectivity in the present invention is defined as follows: inventive compounds are considered active for an enzyme when the observed % control is less than 35% (<35%).

[2] = target: T1, MEK6 (Homo sapiens, UniProt P52564); settings: MEK6, 1 μM; read-out: % control
T1 sequence (P52564 1-334): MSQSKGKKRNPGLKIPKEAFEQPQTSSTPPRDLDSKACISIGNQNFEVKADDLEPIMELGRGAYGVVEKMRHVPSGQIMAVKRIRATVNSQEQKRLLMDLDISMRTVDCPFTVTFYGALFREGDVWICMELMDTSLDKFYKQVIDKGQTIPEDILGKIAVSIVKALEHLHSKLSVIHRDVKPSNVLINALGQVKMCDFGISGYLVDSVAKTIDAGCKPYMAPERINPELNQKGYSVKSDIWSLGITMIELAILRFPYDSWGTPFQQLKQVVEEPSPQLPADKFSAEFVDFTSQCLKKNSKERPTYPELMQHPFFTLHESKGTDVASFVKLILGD
Procedure: as §1, §2

[3] = target: T2, STK36 (Homo sapiens, UniProt Q9NRP7); settings: STK36, 1 μM; read-out: % control
T2 construct: purchased KinomeScan® (panel service)
T2 sequence (Q9NRP7 1-1315): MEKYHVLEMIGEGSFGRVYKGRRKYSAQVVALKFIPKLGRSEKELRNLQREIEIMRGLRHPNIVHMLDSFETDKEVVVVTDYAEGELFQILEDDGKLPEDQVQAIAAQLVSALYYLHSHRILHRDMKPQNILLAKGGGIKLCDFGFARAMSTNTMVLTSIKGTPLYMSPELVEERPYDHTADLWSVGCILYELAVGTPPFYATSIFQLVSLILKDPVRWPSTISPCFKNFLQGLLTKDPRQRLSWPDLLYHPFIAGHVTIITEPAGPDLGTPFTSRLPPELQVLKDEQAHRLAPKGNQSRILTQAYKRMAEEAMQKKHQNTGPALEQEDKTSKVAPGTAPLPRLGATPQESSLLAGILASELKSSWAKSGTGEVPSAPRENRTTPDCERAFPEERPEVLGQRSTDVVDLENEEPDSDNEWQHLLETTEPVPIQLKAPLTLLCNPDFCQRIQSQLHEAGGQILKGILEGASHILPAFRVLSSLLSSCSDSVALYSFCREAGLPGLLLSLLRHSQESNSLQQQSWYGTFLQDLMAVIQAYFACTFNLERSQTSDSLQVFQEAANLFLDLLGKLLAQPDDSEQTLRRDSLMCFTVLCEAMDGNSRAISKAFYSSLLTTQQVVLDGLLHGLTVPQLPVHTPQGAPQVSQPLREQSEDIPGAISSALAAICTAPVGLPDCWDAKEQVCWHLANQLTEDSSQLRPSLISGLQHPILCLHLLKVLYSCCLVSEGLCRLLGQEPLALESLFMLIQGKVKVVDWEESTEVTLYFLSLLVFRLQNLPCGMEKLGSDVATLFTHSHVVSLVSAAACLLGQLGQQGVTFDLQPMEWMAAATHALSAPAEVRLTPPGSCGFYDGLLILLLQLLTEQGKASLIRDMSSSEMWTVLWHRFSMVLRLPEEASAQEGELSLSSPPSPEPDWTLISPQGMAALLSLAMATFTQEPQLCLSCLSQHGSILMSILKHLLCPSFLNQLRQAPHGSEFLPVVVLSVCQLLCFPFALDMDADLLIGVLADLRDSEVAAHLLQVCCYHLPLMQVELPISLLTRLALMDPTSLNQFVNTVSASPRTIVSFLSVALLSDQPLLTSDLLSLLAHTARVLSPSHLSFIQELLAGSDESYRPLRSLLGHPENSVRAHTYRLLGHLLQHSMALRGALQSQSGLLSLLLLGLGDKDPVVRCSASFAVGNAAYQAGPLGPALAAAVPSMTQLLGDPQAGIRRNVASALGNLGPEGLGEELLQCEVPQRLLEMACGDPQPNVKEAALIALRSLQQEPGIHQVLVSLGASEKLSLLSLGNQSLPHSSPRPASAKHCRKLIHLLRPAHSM
Procedure: as §1, §2

[4] = target: CDKL3 (Homo sapiens, UniProt Q8IVW4); settings: CDKL3, 1 μM; read-out: % control
CDKL3, sequence (Q8IVW4 whole entry): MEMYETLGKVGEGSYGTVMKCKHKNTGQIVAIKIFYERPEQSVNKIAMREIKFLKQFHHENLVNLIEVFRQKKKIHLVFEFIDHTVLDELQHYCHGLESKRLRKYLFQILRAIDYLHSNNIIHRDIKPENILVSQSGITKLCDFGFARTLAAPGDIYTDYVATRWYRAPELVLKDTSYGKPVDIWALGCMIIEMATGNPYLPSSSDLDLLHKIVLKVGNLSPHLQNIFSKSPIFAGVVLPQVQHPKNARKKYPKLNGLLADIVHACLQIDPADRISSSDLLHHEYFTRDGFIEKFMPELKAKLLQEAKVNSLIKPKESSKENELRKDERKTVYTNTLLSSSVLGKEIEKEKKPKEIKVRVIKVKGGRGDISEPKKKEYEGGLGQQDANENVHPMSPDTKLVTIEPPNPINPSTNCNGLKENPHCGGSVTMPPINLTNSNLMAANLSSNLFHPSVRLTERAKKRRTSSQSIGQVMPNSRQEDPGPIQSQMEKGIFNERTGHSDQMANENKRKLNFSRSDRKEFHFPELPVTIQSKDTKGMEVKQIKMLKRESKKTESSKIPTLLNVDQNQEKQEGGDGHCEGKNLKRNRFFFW
Procedure: as §1, §2

[5] = target: ERBB4 (Homo sapiens, UniProt Q15303); settings: ERBB4, 1 μM; read-out: % control
ERBB4, sequence (Q15303 26-1308): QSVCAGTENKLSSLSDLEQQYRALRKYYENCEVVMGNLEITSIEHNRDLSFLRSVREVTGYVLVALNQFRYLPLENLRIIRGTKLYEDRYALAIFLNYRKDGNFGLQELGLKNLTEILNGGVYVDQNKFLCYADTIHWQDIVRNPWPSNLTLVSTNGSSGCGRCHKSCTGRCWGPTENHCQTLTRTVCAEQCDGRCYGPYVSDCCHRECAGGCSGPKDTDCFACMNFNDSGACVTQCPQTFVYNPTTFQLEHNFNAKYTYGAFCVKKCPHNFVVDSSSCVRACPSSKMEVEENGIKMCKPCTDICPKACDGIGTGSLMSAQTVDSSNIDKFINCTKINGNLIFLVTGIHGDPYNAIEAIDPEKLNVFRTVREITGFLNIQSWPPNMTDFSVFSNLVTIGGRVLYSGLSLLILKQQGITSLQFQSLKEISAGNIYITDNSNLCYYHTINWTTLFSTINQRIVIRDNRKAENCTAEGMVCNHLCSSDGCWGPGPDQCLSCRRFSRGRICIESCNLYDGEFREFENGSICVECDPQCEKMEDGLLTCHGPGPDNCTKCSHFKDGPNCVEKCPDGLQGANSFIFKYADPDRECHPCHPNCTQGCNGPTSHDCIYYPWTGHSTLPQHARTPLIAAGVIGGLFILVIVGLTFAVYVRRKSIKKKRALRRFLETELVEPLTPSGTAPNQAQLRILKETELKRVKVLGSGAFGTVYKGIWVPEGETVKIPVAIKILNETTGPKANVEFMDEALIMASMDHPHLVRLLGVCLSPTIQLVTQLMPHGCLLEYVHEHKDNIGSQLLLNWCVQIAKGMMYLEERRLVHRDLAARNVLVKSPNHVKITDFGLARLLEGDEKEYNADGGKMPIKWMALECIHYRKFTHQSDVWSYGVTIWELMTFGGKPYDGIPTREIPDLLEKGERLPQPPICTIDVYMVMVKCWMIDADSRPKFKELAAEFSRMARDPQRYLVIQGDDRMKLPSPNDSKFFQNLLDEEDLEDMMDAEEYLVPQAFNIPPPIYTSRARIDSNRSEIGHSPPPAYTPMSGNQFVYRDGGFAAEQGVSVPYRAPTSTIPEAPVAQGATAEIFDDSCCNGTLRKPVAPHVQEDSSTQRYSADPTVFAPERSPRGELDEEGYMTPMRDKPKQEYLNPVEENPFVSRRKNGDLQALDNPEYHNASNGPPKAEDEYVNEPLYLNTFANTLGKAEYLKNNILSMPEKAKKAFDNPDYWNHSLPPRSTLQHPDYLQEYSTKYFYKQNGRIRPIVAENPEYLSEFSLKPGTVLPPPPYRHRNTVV
Procedure: as §1, §2

[6] = target: T3, KIT(V559D) (Homo sapiens, UniProt P10721, V559D); settings: read-out: % control
T3 construct: purchased KinomeScan®
Procedure: as §1, §2

[7] = target: MLK3 (Homo sapiens, UniProt Q16584); settings: MLK3, 1 μM; read-out: % control
MLK3, sequence (Q16584 whole entry): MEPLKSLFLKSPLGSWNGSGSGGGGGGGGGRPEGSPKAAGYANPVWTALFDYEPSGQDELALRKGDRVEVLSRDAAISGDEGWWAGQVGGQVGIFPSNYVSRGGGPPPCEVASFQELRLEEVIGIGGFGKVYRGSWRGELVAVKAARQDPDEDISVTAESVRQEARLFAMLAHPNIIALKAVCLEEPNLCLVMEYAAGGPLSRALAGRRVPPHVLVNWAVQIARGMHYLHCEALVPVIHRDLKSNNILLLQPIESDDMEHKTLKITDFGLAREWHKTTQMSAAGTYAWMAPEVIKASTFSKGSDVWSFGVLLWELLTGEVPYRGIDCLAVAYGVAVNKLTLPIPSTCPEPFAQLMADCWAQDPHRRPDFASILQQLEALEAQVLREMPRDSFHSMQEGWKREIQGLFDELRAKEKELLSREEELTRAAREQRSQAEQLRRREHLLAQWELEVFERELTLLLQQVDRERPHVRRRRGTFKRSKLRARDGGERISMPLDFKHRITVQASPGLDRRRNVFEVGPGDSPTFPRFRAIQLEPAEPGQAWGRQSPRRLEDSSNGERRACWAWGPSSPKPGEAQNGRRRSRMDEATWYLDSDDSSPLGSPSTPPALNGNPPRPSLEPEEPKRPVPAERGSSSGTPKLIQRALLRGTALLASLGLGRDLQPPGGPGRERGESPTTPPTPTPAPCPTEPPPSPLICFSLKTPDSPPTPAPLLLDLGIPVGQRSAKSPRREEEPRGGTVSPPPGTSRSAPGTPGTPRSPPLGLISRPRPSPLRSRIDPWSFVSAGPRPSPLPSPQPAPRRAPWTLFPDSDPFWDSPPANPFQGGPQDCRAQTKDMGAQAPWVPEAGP
Procedure: as §1, §2

[8] = target: T4, ABL1(Q252H)-nonphosphorylated (Homo sapiens, UniProt P00519, Q252H); settings: read-out: % control
T4 construct: purchased KinomeScan®
Procedure: as §1, §2

[9] = target: EGFR(T790M) (Homo sapiens, UniProt P00533, T790M); settings: read-out: % control
EGFR(T790M), sequence (P00533 25-1210 T790M): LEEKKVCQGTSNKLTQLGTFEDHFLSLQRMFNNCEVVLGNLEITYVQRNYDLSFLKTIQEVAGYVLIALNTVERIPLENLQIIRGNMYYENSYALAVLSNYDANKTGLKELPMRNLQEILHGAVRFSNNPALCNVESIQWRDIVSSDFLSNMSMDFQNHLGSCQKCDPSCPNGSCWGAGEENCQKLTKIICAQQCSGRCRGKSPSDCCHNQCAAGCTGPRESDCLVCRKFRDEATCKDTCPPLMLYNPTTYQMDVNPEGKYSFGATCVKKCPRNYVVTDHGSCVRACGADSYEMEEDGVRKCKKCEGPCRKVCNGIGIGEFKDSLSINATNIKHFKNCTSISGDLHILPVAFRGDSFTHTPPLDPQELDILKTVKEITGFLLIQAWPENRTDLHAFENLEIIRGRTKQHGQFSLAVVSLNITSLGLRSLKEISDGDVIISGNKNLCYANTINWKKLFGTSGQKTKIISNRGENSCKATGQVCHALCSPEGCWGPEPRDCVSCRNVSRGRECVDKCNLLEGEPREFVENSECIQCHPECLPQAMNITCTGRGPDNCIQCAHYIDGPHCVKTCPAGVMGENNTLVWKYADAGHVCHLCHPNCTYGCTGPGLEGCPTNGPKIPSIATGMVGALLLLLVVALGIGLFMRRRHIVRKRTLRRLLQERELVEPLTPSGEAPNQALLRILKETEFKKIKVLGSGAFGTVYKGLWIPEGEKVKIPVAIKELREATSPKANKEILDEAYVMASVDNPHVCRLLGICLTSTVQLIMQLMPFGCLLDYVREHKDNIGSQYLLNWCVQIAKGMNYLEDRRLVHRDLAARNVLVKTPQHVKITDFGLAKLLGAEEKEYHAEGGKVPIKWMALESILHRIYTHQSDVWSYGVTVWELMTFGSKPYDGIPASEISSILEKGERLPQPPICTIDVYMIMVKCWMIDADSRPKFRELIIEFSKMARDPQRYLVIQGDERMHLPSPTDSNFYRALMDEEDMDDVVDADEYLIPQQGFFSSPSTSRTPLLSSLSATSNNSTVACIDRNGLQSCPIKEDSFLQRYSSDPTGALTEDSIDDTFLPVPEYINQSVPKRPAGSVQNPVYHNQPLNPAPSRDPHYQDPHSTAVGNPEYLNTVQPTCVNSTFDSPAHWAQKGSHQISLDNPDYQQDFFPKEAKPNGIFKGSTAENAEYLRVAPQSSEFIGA
Procedure: as §1, §2

FRK, sequence (P42685 whole entry): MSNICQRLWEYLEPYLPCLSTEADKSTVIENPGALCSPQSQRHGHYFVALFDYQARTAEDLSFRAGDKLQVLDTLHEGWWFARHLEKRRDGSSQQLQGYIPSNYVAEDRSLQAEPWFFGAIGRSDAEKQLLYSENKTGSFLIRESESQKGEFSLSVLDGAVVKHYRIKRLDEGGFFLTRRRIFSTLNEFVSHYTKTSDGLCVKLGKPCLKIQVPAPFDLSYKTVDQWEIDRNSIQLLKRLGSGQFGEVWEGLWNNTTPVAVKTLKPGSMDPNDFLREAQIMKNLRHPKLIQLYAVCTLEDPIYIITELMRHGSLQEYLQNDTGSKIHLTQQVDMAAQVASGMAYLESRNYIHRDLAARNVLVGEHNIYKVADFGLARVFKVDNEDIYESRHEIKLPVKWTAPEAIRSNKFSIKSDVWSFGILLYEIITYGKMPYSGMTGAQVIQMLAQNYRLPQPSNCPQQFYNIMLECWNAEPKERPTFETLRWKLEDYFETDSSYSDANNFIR

Row | Compound | remaining binding at 1 µM [1] | remaining binding at 1 µM [2] | remaining binding at 1 µM [3] | remaining binding at 1 µM [4] | remaining binding at 1 µM [5] | remaining binding at 1 µM [6] | remaining binding at 1 µM [7] | remaining binding at 1 µM [8] | remaining binding at 1 µM [9]
1 | CNc1c(-c2cnn([C@H]3CCN(C(C)=O)C[C@@H]3F)c2)cnc2[nH]cc(Cl)c12 [Compound 77, 1-((3S,4S)-4-(4-(3-chloro-4-(methylamino)-1H-pyrrolo[2,3-b]pyridin-5-yl)-1H-pyrazol-1-yl)-3-fluoropiperidin-1-yl)ethan-1-one] | 100% | 60% | 100% | 94% | 100% | 2.8% | 93% | 50% | 93%
2 | CNc1c(-c2ccc(C(=O)N3CCC(N4CCOCC4)CC3)cc2)cnc2[nH]cc(Cl)c12 [Compound 96, (4-(3-chloro-4-(methylamino)-1H-pyrrolo[2,3-b]pyridin-5-yl)phenyl)(4-morpholinopiperidin-1-yl)methanone] | 84% | 16% | 99% | 100% | 100% | 4.5% | 99% | 64% | 83%
3 | O=C(c1ccc(-c2cnc3[nH]cc(Cl)c3c2NC2CCCC2)cc1)N1CCC(N2CCOCC2)CC1 [Compound 101, (4-(3-chloro-4-(cyclopentylamino)-1H-pyrrolo[2,3-b]pyridin-5-yl)phenyl)(4-morpholinopiperidin-1-yl)methanone] | 100% | 95% | 96% | 100% | 97% | 50% | 100% | 92% | 100%
